{
  "source": "paper PMC6361113",
  "about": "(Cancer chemotherapy and pharmacology, 2017)",
  "key": {"[1]": {"settings": "cited from earlier work"}, "[2]": {"settings": "cited from earlier work", "remark": "listed apart in the source"}, "[3]": {"assay_type": "in vivo, human"}, "[4]": {"settings": "cited from earlier work", "remark": "listed apart in the source"}, "[5]": {"experiment": "Population pharmacokinetic", "assay_type": "in vivo, human"}, "[6]": {"settings": "cited from earlier work", "remark": "listed apart in the source"}, "[7]": {"settings": "olaparib tablets 200 mg, noncompartmental; cited from earlier work"}, "[8]": {"settings": "cited from earlier work", "remark": "listed apart in the source"}, "[9]": {"settings": "cited from earlier work", "remark": "listed apart in the source"}, "blood/PMBCs": {"tested_on": "blood/PMBCs", "settings": "in vitro; cited from earlier work"}, "[10]": {"settings": "this study, carboplatin pre-treatment"}, "[11]": {"settings": "final population PK model, inter-individual variability"}, "[12]": {"settings": "400 mg capsule dose, estimated range"}, "[13]": {"settings": "400 mg capsule dose, typical averages"}, "[14]": {"settings": "patients with CLcr = 50–80 mL/min, prescribing information"}, "[15]": {"settings": "prescribing information, 400 mg BID capsules"}, "[16]": {"settings": "n = 4, ref unpublished findings from the drug sponsor (NCT00516724)"}, "[17]": {"settings": "ref unpublished findings from the drug sponsor"}, "[18]": {"settings": "olaparib monotherapy, clinical trials"}},
  "note": "Several values for one entry are separate records, joined by “and”; a condition that tells them apart may be missing. Equal entries are not always repeated. Where two headings read alike, the source gives them in different places.",
  "data": [
    {"smiles": "N.N.O=C([O-])C1(C(=O)[O-])CCC1.[Pt+2]", "note": "[carboplatin]", "values": [
      {"measurement": "terminal plasma half-life", "setting": "[1]", "result": "2 to 3", "unit": "h"},
      {"measurement": "plasma protein binding", "setting": "[1]; human, in vivo", "result": "not plasma protein bound"},
      {"measurement": "dose excreted within 12 h", "setting": "[1]; patients with normal renal function (CLcr > 60 mL/min)", "result": 65, "unit": "%"}
    ]},
    {"smiles": "O=C(c1cc(Cc2n[nH]c(=O)c3ccccc23)ccc1F)N1CCN(C(=O)C2CC2)CC1", "note": "[olaparib]", "values": [
      {"measurement": "change in olaparib plasma protein binding by carboplatin", "setting": "[2]", "result": "no change in olaparib plasma protein binding"},
      {"measurement": "half-life", "setting": "[3]; human, plasma, oral, 200 mg", "result": "~3", "unit": "h"},
      {"measurement": "V/F, first 200 mg dose of olaparib alone", "setting": "[3]; this study, Group A C1D1, before carboplatin", "result": 31.1, "unit": "L"},
      {"measurement": "decrease in olaparib AUCLAST in presence of carboplatin", "setting": "[3]; [10]", "result": 1.3, "unit": "fold"},
      {"measurement": "decrease in olaparib CMAX in presence of carboplatin", "setting": "[3]; [10]", "result": 1.2, "unit": "fold"},
      {"measurement": "CL/F point estimate, previous population PK model", "setting": "[4]; 100 mg olaparib tablets BID with cisplatin and gemcitabine, 23 advanced cancer patients", "result": "6.48 L/h and 6.5 L/h"},
      {"measurement": "V/F point estimate, previous population PK model", "setting": "[4]; 100 mg olaparib tablets BID with cisplatin and gemcitabine, 23 patients", "result": 38.7, "unit": "L"},
      {"measurement": "half-life of first dose olaparib, previous population PK model", "setting": "[4]; 100 mg olaparib tablets BID with cisplatin and gemcitabine", "result": 4, "unit": "h"},
      {"measurement": "absorption rate (Ka), previous population PK model", "setting": "[4]; single compartment absorption model", "result": 2, "unit": "h⁻¹"},
      {"measurement": "IIV CL/F bootstrap estimate (%RSE)", "setting": "[5]; bootstrap, 1000 replicates", "result": "57.0% (7.06%) %CV"},
      {"measurement": "IIV Tlag bootstrap estimate (%RSE)", "setting": "[5]; bootstrap, 1000 replicates", "result": "70.7% (19.6%) %CV"},
      {"measurement": "IIV V/F bootstrap estimate (%RSE)", "setting": "[5]; bootstrap, 1000 replicates", "result": "38.4% (9.78%) %CV"},
      {"measurement": "BSV on the CL/F parameter explained by carboplatin covariate", "setting": "[5]; final covariate model", "result": "~2", "unit": "%"},
      {"measurement": "IIV CL/F point estimate (%RSE)", "setting": "[5]; final population PK model, inter-individual (between-subject) variability", "result": "55.0% (7.98%) %CV"},
      {"measurement": "IIV Tlag point estimate (%RSE)", "setting": "[5]; [11]", "result": "87.1% (13.5%) %CV"},
      {"measurement": "IIV V/F point estimate (%RSE)", "setting": "[5]; [11]", "result": "37.3% (9.23%) %CV"},
      {"measurement": "change in volume of distribution relative to carboplatin pretreatment", "setting": "[5]; in vivo", "result": "No change in volume of distribution"},
      {"measurement": "correlation (r) of creatinine clearance with olaparib clearance", "setting": "[5]; population model", "result": "< 0.005"},
      {"measurement": "clearance", "setting": "[6]; [12]", "result": "7.0 to 10.8", "unit": "L/h"},
      {"measurement": "volume of distribution", "setting": "[6]; [12]", "result": "107 to 210", "unit": "L"},
      {"measurement": "AUC", "setting": "[6]; [13]", "result": "10000 to 70000", "unit": "ng·h/mL"},
      {"measurement": "CMax", "setting": "[6]; [13]", "result": "1 to 6.4", "unit": "µg/mL"},
      {"measurement": "CL/F, other literature value", "setting": "[6]", "result": 4.6, "unit": "L/h"},
      {"measurement": "V/F, other literature value", "setting": "[6]", "result": 40.3, "unit": "L"},
      {"measurement": "half-life", "setting": "[6]; elimination rate calculated over a 72-h period", "result": 12, "unit": "h"},
      {"measurement": "increase in olaparib AUC in mild renal impairment", "setting": "[6]; [14]", "result": 1.2, "unit": "fold"},
      {"measurement": "increase in olaparib CMAX in mild renal impairment", "setting": "[6]; [14]", "result": 1.5, "unit": "fold"},
      {"measurement": "apparent plasma CL/F", "setting": "[6]; [15]", "result": "8.6 (±7.1) L/h"},
      {"measurement": "apparent volume of distribution at steady-state (Vss/F)", "setting": "[6]; [15]", "result": "167 (±196) L"},
      {"measurement": "AUC mean", "setting": "[6]; tablet dose of 200 mg", "result": 43000, "unit": "ng·h/mL"},
      {"measurement": "CL/F mean", "setting": "[6]; tablet dose of 200 mg", "result": 7.95, "unit": "L/h"},
      {"measurement": "CMAX mean", "setting": "[6]; tablet dose of 200 mg", "result": 7, "unit": "µg/mL"},
      {"measurement": "V/F mean", "setting": "[6]; tablet dose of 200 mg", "result": 146, "unit": "L"},
      {"measurement": "CL/F NCA estimate", "setting": "[7]", "result": 6.08, "unit": "L/h"},
      {"measurement": "lower olaparib CMAX with carboplatin pre-exposure", "setting": "[8]; [16]", "result": 14.8, "unit": "%"},
      {"measurement": "lower steady state olaparib AUC with carboplatin pre-exposure", "setting": "[8]; [16]", "result": 11.0, "unit": "%"},
      {"measurement": "lower olaparib AUC with carboplatin pre-exposure", "setting": "[8]; [17]", "result": 14, "unit": "%"},
      {"measurement": "lower olaparib CMAX with carboplatin pre-exposure", "setting": "[8]; [17]", "result": 17, "unit": "%"},
      {"measurement": "patients having hematologic toxicity", "setting": "[9]; olaparib capsules combined with carboplatin, likely due to carboplatin", "result": 82, "unit": "%"},
      {"measurement": "grade 1–2 fatigue", "setting": "[9]; [18]", "result": "~30", "unit": "%"},
      {"measurement": "grade 1–2 nausea", "setting": "[9]; [18]", "result": "~32", "unit": "%"},
      {"measurement": "grade 1–2 vomiting", "setting": "[9]; [18]", "result": "~20", "unit": "%"},
      {"measurement": "intracellular olaparib when blood/PMBCs were pretreated with carboplatin", "setting": "blood/PMBCs", "result": "greater intracellular olaparib"}
    ]}
  ]
}
